Data as given in article PMC6749073 (Frontiers in Pharmacology, 2019).

Columns and labels:
[1] = tested on: p53, Fas, and Bax expressions in A549 and H292 cells; test: Western blot of p53, Fas and Bax; assay type: cell-based, human; details: 10 μM SP600125 pretreatment 0.5 h, 25 μM diplatin 48 h
Procedure: (§1) Cells were treated with diplatin, DDP, and CBP before being lysed. After centrifugation at 12,000 rpm for 10 min, an equal amount of protein from each group was subjected to electrophoresis on 10% SDS-PAGE gels. The proteins in the gel were then electroblotted onto polyvinylidene fluoride (PVDF) membranes (Millipore, Massachusetts, USA). After incubation in the blocking buffer (1× TBS, 0.1% Tween-20, and 5% w/v dry nonfat milk) for 1 h at room temperature, the membranes were incubated with the primary antibody at 4°C overnight. Next, membranes were rinsed with TBST, and then secondary antibodies were applied (LI-COR, USA) at room temperature for 1 h. Immunoreactive bands were visualized by a two-color infrared imaging system (Odyssey, LI-COR, USA).

LTEP-A-2 = test: MTT cell viability assay, LTEP-A-2; assay type: cell-based, human; details: 48 h
Procedure: (§2) Cells were seeded at a density of 1 × 10^4 cells per well in 96-well plates. The following day, these cells were washed with PBS and exposed to different concentrations of testing compounds in culture medium for 48 h. MTT solution (10 μl at 5 mg/ml) was added to each well. After 4 h of incubation at 37°C, the medium was removed, and the insoluble precipitate was dissolved in 100 μl DMSO (Sigma, St. Louis, MO, USA). The absorbance of the dissolved solution at 490 nm was measured using a microplate reader (TECAN A-5082; Megllan, Austria). Cell viability percentages were calculated by dividing the mean optical density (OD) of compound-containing wells by that of the control wells. Each experiment was replicated three times. The IC50 of testing drugs was calculated with Statistical Product and Service Solutions software (SPSS, version 16.0).

LTEP-A-2 cells = test: Cell cycle by PI flow cytometry, LTEP-A-2; assay type: cell-based, human; details: diplatin 50 µM, DDP 5 µM, CBP 100 µM
Procedure: (§3) Then, the cells were trypsinized, washed with PBS, and fixed in 1.5 ml 95% ethanol and left at 4°C overnight. They were then incubated with RNase and stained with propidium iodide (PI) (Multi Sciences Biotech Co., Ltd). PI absorbance was determined using a Cytomics FC500 Flow Cytometer (Beckman Coulter, USA).

H1650 = test: MTT cell viability assay, H1650; assay type: cell-based, human; details: 48 h
Procedure: as §2

H292 cells = test: Cell cycle by PI flow cytometry, H292; assay type: cell-based, human; details: diplatin 50 μM, DDP 5 μM, CBP 100 μM
Procedure: as §3

[2] = tested on: bone marrow karyocyte count; test: Bone marrow karyocyte count; assay type: in vivo, mice
A549 cells = test: Cell cycle by PI flow cytometry, A549; assay type: cell-based, human; details: diplatin 50 μM, DDP 5 μM, CBP 100 μM
Procedure: as §3

[3] = tested on: JNK, Erk1/2 and p38 phosphorylation in A549 and H292 cells; test: Western blot of MAPK phosphorylation (JNK, Erk1/2, p38); assay type: cell-based, human; details: for Erk1/2 and p38 phosphorylation: diplatin 10, 25, 50 μM, DDP 5 μM, CBP 100 μM
Procedure: as §1

H1299 = test: MTT cell viability assay, H1299; assay type: cell-based, human; details: 48 h
Procedure: as §2

[4] = design: method as in Moraleja et al., 2018; details: rats; ref Moraleja et al., 2018; cited from earlier work
HCC827 = test: MTT cell viability assay, HCC827; assay type: cell-based, human; details: 48 h
Procedure: as §2

H460 cells = test: Cell cycle by PI flow cytometry, H460; assay type: cell-based, human; details: diplatin 50 µM, DDP 5 µM, CBP 100 µM
Procedure: as §3

[5] = tested on: A549, NCI-H292, NCI-H460, and LTEP-A-2 xenograft models; test: ED50 (50% reduction of xenograft tumor volume) in nude mice; assay type: in vivo; details: dose reducing xenograft tumor volume by 50%; average over A549, NCI-H292, NCI-H460, and LTEP-A-2 xenograft models
Procedure: (§4) After injection, the animals’ condition was monitored every day for over 1 week by an observer who was blinded to the dose and drug allocation.
(§5) Estimates for ED50 and LD50 were calculated through nonlinear regression, data were fitted to a sigmoidal dose-response relationship in Prism (version 4.0a; GraphPad Software, Inc., San Diego, CA). The data were fitted to the equation:
(§6) Y=Ymin+Ymax−Ymin/1+10^(LogED50−X)∗HillSlope
(§7) where X is the logarithm of concentration, and Y is the response.

[6] = tested on: BEAS-2B normal human lung epithelial cell line; test: MTT cell viability assay, BEAS-2B; assay type: cell-based; details: BEAS-2B normal lung epithelial cells; MTT; 48 h
Procedure: as §2

A549/DDP = test: MTT cell viability assay, A549/DDP; assay type: cell-based, human; details: A549/DDP (DDP-resistant), 48 h
Procedure: as §2

H292 = test: MTT cell viability assay, H292; assay type: cell-based, human; details: 48 h
Procedure: as §2

A549 = test: MTT cell viability assay, A549; assay type: cell-based, human; details: 48 h
Procedure: as §2

Calu-3 = test: MTT cell viability assay, Calu-3; assay type: cell-based, human; details: 48 h
Procedure: as §2

lung tumor cell lines = test: MTT cell viability assay, panel of lung tumor cell lines; assay type: cell-based, human; details: 48 h, read-out: IC50 range over the lung tumor cell lines
Procedure: as §2

[7] = tested on: peripheral blood cell count; test: Peripheral blood cell count of treated xenograft mice; assay type: in vivo; details: diplatin 120 mg/kg; DDP 6 mg/kg; CBP 60 mg/kg
[8] = Splenic index (spleen weight-to-body weight ratio); assay type: in vivo, mice; details: diplatin 30, 60, 120 mg/kg; DDP 6 mg/kg; CBP 60 mg/kg
H292 tumors = test: TUNEL assay of H292 xenograft tumor sections; assay type: in vivo, mice; details: diplatin 120 mg/kg, DDP 6 mg/kg, CBP 60 mg/kg
Procedure: (§8) Tumor tissues were fixed in 10% formalin for 4 h and then embedded in paraffin. Five-micrometer-thick sections were sliced and stained for apoptotic cells with TUNEL assay kit in accordance with manufacturer instructions (KGI Biotechnology Company, Nanjing, China). A positive result was marked by brown staining in the cell nucleus. Cell images were acquired through a microscope (Olympus BX 51, Japan). The apoptotic index (AI) was determined as a percentage of apoptotic cells from at least 1,000 cells in each mouse.

normal ICR mice = test: LD50 in normal ICR mice; assay type: in vivo; details: tail vein injection
Procedure: as §4, §5, §6, §7

[9] = Body weight and tolerability of A549 and H292 xenograft mice; assay type: in vivo; details: diplatin 120 mg/kg; CBP 60 mg/kg; every 3 days i.v.
Procedure: Cells in logarithmic growth were washed with PBS and suspended in serum-free medium. Portions of the suspension (5 × 10^6 cells in 0.1 ml/mouse) were mixed at a 3:1 ratio with Matrigel basement membrane matrix and injected subcutaneously into the mice. Following 2 weeks of growth, tumor tissues were cut into multiple 2 × 2 × 2 mm^3 pieces and implanted using a range trocar subcutaneously (s.c. injection) into the left forepaw armpit of each mouse ([Jiang et al., 2017]). Treatment with pharmacology was started when the tumors reached an average volume of 100–200 mm^3. The mice were randomly divided into six groups (n = 14/group).
Body weight and tumor size were assessed every 3 days. Tumor size was measured using a caliper, the volumes were calculated according to the following standard formula: V = (L × W^2)/2 (V = tumor volume, L = largest diameter of tumor, W = smallest diameter of tumor). On day 25, all mice were sacrificed by cervical dislocation, and the tumors were removed and weighed.

A549 tumors = test: TUNEL assay of A549 xenograft tumor sections; assay type: in vivo, mice; details: diplatin 120 mg/kg, DDP 6 mg/kg, CBP 60 mg/kg
Procedure: as §8

H460 = test: MTT cell viability assay, H460; assay type: cell-based, human; details: 48 h
Procedure: as §2

Compound | IC50 (LTEP-A-2) [µM] | effect on cell cycle distribution (LTEP-A-2 cells) | IC50 (H1650) [µM] | effect on cell cycle distribution (H292 cells) | effect on cell cycle distribution (A549 cells) | Erk1/2 and p38 phosphorylation [3] | IC50 (H1299) [µM] | IC50 (HCC827) [µM] | effect on cell cycle distribution (H460 cells) | Mice ED50 [5] [mg/kg] | IC50 [6] [µM] | IC50 (A549/DDP) [µM] | IC50 (H292) [µM] | IC50 (A549) [µM] | IC50 (Calu-3) [µM] | also measured
Oc1c2ccccc2c2c3c(cccc13)N=N2 [SP600125] |  |  |  |  |  |  |  |  |  |  |  |  |  |  |  | effect on diplatin-induced p53, Fas, and Bax expression [1]: suppressed
N.N.[Cl][Pt][Cl] [DDP, cisplatin] | 6.2 | induced cell cycle arrest in S phase | 11.6 | induced cell cycle arrest in S phase | induced cell cycle arrest in S phase | failed to induce Erk1/2 and p38 phosphorylation | 18.7 | 14.7 | induced cell cycle arrest in S phase | 6.0 | 19.3 | 151 | 6 | 46.7 | 33.5 | bone marrow karyocyte count compared with the 120 mg/kg diplatin-treated group ([2]; mouse, in vivo): decreased bone marrow karyocyte count more; JNK phosphorylation levels ([3]; diplatin 10–50 μM, DDP 10 μM, 0.5 h): elevated; Pt accumulation in the kidney compared with the CBP group [4]: approximately five-fold higher
N.N.O=C([O-])C1(C(=O)[O-])CCC1.[Pt+2] [CBP, carboplatin] | 57 | induced cell cycle arrest in S phase | 209 | induced cell cycle arrest in S phase | induced cell cycle arrest in S phase | failed to induce Erk1/2 and p38 phosphorylation | 274 | 328 | induced cell cycle arrest in S phase | 59.5 | 461 | 300 | 257 | 221 | 790 | IC50 (lung tumor cell lines): 57 to 790 µM; bone marrow karyocyte count compared with the 120 mg/kg diplatin-treated group ([2]; DDP 6 mg/kg, CBP 60 mg/kg): decreased bone marrow karyocyte count more; decrease of peripheral blood cell count [7]: 67.9%; splenic index relative to control [8]: no difference relative to control; apoptosis (apoptotic index, TUNEL) (H292 tumors): 24.9%; Mice LD50 (normal ICR mice): 150 mg/kg; reduction of body weight by day 25 [9]: 18.71%; apoptosis (apoptotic index, TUNEL) (A549 tumors): 18.5%; IC50 (H460): 229 µM
